Source: DBAASP
Converted amounts (≈) assume the structure as drawn.

Columns and labels:
Experiment in all cases: ≥ marks a high value that may be exact or a test limit, other limits are often not marked, values filed in µg/mL are converted to µM
[1] = tested on: Bacillus subtilis ATCC 6633
Escherichia coli = tested on: Escherichia coli
Candida albicans = tested on: Candida albicans
Staphylococcus aureus = tested on: Staphylococcus aureus
[2] = tested on: Acinetobacter baumannii ATCC 19606
[3] = tested on: Pseudomonas aeruginosa ATCC 27853
[4] = tested on: Escherichia coli ATCC 25922
[5] = tested on: Staphylococcus aureus ATCC 25923
[6] = tested on: Klebsiella pneumoniae ATCC 700603
Acinetobacter baumannii = tested on: Acinetobacter baumannii
[7] = tested on: Pseudomonas aeruginosa ATCC 9027
[8] = tested on: Staphylococcus epidermidis ATCC 12228
[9] = tested on: Candida albicans ATCC 90028
Klebsiella pneumoniae = tested on: Klebsiella pneumoniae
[10] = tested on: Pseudomonas aeruginosa PAO1
Escherichia coli UB1005 = tested on: Escherichia coli UB1005
[11] = tested on: Candida albicans ATCC 10231
[12] = tested on: Staphylococcus aureus ATCC 29213

## CC[C@H](C)[C@H](NC(=O)[C@H](CCCN=C(N)N)NC(=O)[C@@H](NC(=O)[C@@H]1CCCN1C(=O)[C@H](CCCN=C(N)N)NC(=O)[C@@H](NC(=O)[C@@H]1CCCN1C(=O)[C@H](CCCN=C(N)N)NC(=O)[C@H](CC(C)C)NC(=O)CNC(=O)[C@H](Cc1cnc[nH]1)NC(=O)[C@@H]1CCCN1C(=O)CNC(=O)[C@H](CC(C)C)NC(=O)[C@H](CC(N)=O)NC(=O)[C@H](Cc1c[nH]c2ccccc12)NC(=O)[C@H](C)NC(=O)[C@@H](NC(=O)[C@H](C)N)[C@@H](C)O)[C@@H](C)CC)[C@@H](C)CC)C(=O)N[C@@H](CCCN=C(N)N)C(=O)N1CCC[C@H]1C(=O)N[C@@H](CC(C)C)C(=O)N[C@@H](CS)C(=O)NCC(=O)N[C@@H](CCCCN)C(=O)N[C@@H](CC(=O)O)C(=O)N[C@@H](CCCCN)C(=O)N[C@@H](CO)C(=O)O [ATAWNLGPHGLRPIRPIRIRPLCGKDKS]
[1]
  MIC: ≥ 100 µM

## CC[C@H](C)[C@H](NC(=O)[C@H](CCCCN)NC(=O)[C@@H](N)CS)C(=O)N[C@@H](CC(N)=O)C(=O)N[C@@H](CCCCN)C(=O)N[C@@H](CCC(N)=O)C(=O)N[C@@H](CS)C(=O)O [CKINKQC]
Escherichia coli
  MIC: > 200 µM
Candida albicans
  MIC: > 200 µM
Staphylococcus aureus
  MIC: > 200 µM

## CC(C)C[C@H](NC(=O)[C@H](CC(C)C)NC(=O)[C@H](CCCCN)NC(=O)[C@H](CCCCN)NC(=O)[C@H](CC(C)C)NC(=O)[C@H](CCC(=O)O)NC(=O)[C@H](CCCCN)NC(=O)[C@H](CC(C)C)NC(=O)[C@@H](N)Cc1ccccc1)C(N)=O [FLKELKKLL]
[2]
  MIC: 113 µM (≈ 128 µg/mL)
[3]
  MIC: 14.1 µM (≈ 16 µg/mL)
[4]
  MIC: 113 µM (≈ 128 µg/mL)
[5]
  MIC: > 113 µM

## CC(C)C[C@H](NC(=O)[C@H](CC(C)C)NC(=O)[C@H](CCCCN)NC(=O)[C@H](CCCCN)NC(=O)[C@H](CC(C)C)NC(=O)[C@H](CC(N)=O)NC(=O)[C@H](CCCCN)NC(=O)[C@H](CC(C)C)NC(=O)[C@@H](N)Cc1ccccc1)C(N)=O [FLKNLKKLL]
[2]
  MIC: > 115 µM
[3]
  MIC: 7.17 µM (≈ 7.99 µg/mL)
[4]
  MIC: 115 µM (≈ 128 µg/mL)
[5]
  MIC: > 115 µM

## CC(C)C[C@H](NC(=O)[C@H](CC(C)C)NC(=O)[C@H](CCCCN)NC(=O)[C@H](CCCCN)NC(=O)[C@H](CC(C)C)NC(=O)[C@@H]1CCCN1C(=O)[C@H](CCCCN)NC(=O)[C@H](CC(C)C)NC(=O)[C@@H](N)Cc1ccccc1)C(N)=O [FLKPLKKLL]
[2]
  MIC: > 116 µM
[3]
  MIC: 7.28 µM (≈ 7.99 µg/mL)
[4]
  MIC: > 116 µM
[5]
  MIC: > 116 µM

## CC(C)C[C@H](NC(=O)[C@H](CC(C)C)NC(=O)[C@H](CCCCN)NC(=O)[C@H](CCCCN)NC(=O)[C@H](CC(C)C)NC(=O)[C@@H](NC(=O)[C@H](CCCCN)NC(=O)[C@H](CC(C)C)NC(=O)[C@@H](N)Cc1ccccc1)C(C)C)C(N)=O [FLKVLKKLL]
[2]
  MIC: 29.1 µM (≈ 32 µg/mL)
[3]
  MIC: 7.26 µM (≈ 7.99 µg/mL)
[4]
  MIC: 29.1 µM (≈ 32 µg/mL)
[5]
  MIC: 29.1 µM (≈ 32 µg/mL)

## CC[C@H](C)[C@H](NC(=O)[C@@H](NC(=O)[C@@H]1CCCN1C(=O)[C@@H](NC(=O)[C@@H]1CCCN1C(=O)[C@H](CCCCN)NC(=O)[C@H](CCCCN)NC(=O)[C@H](CO)NC(=O)CN)C(C)C)[C@@H](C)CC)C(=O)N[C@@H](Cc1ccc(O)cc1)C(=O)N[C@H]1CSSC[C@@H](C(=O)N[C@@H](CCC(N)=O)C(=O)N[C@@H](CCCN=C(N)N)C(=O)N[C@@H](CCSC)C(=O)O)NC(=O)[C@H](CCCCN)NC(=O)[C@H](C)NC(=O)[C@H]([C@@H](C)O)NC(=O)[C@H](CCCN=C(N)N)NC(=O)[C@H](CCCN=C(N)N)NC(=O)[C@H](CCC(N)=O)NC1=O [GSKKPVPIIYCQRRTAKCQRM]
[4]
  MIC: 13 µM (≈ 32 µg/mL)
[6]
  MIC: 13 µM (≈ 32 µg/mL)

## CC[C@H](C)[C@H](N)C(=O)N[C@@H](Cc1cnc[nH]1)C(=O)N[C@@H](CCCCN)C(=O)N[C@@H](CC(C)C)C(=O)N[C@H](C(=O)N[C@@H](CCCCN)C(=O)N[C@@H](CC(C)C)C(=O)N[C@@H](Cc1c[nH]c2ccccc12)C(=O)N[C@@H](CC(C)C)C(=O)N[C@@H](CC(N)=O)C(=O)N[C@@H](CC(C)C)C(=O)NCC(=O)N[C@@H](CCCCN)C(=O)N[C@@H](CCCCN)C(=O)N[C@@H](Cc1ccccc1)C(=O)O)C(C)C [IHKLVKLWLNLGKKF]
Acinetobacter baumannii
  MIC: ≥ 64 µM
[4]
  MIC: 64 µM (≈ 118 µg/mL)
[7]
  MIC: > 64 µM
[5]
  MIC: > 64 µM
[6]
  MIC: 64 µM (≈ 118 µg/mL)

## CC[C@H](C)[C@H](NC(=O)[C@H](CC(N)=O)NC(=O)[C@H](Cc1cnc[nH]1)NC(=O)[C@H](Cc1ccccc1)NC(=O)[C@H](CC(C)C)NC(=O)[C@H](CCSC)NC(=O)CNC(=O)[C@H](CC(C)C)NC(=O)[C@H](CCSC)NC(=O)[C@H](CCCCN)NC(=O)[C@@H](N)CC(C)C)C(=O)N[C@@H](CCCN=C(N)N)C(=O)N[C@@H](CC(N)=O)C(=O)N[C@H](C(=O)N[C@@H](CC(C)C)C(=O)N[C@@H](CCCCN)C(=O)N[C@H](C(=O)N[C@H](C(N)=O)C(C)C)[C@@H](C)O)[C@@H](C)CC [LKMLGMLFHNIRNILKTV]
[8]
  MIC: 64 µM (≈ 137 µg/mL)
[9]
  MIC: ≥ 64 µM
[5]
  MIC: 128 µM (≈ 274 µg/mL)

## CC(C)C[C@H](NC(=O)CNC(=O)[C@H](C)NC(=O)[C@@H](NC(=O)[C@H](CCCN=C(N)N)NC(=O)[C@H](CCCN=C(N)N)NC(=O)[C@H](CC(C)C)NC(=O)[C@@H](N)CC(C)C)C(C)C)C(=O)N[C@@H](CC(C)C)C(=O)N[C@@H](CCCCN)C(=O)N[C@@H](CCC(N)=O)C(=O)N[C@@H](Cc1ccccc1)C(=O)N[C@@H](C)C(=O)N[C@@H](CCCCN)C(=O)O [LLRRVAGLLKQFAK]
[3]
  MIC: 4.96 µM (≈ 8 µg/mL)
[4]
  MIC: 2.48 µM (≈ 4 µg/mL)
[5]
  MIC: 9.92 µM (≈ 16 µg/mL)
[1]
  MIC: 9.92 µM (≈ 16 µg/mL)

## CC[C@H](C)[C@H](NC(=O)CNC(=O)[C@H](CC(N)=O)NC(=O)[C@@H](NC(=O)[C@H](C)NC(=O)[C@H](CC(N)=O)NC(=O)[C@H](CC(C)C)NC(=O)[C@H](C)NC(=O)[C@H](C)NC(=O)[C@H](CCCN=C(N)N)NC(=O)CNC(=O)[C@H](C)NC(=O)[C@H](C)NC(=O)[C@H](C)NC(=O)[C@H](C)NC(=O)[C@H](CCSC)NC(=O)[C@H](CC(=O)O)NC(=O)[C@H](CCCCN)NC(=O)[C@@H](NC(=O)[C@H](CO)NC(=O)[C@H](CO)NC(=O)[C@H](Cc1c[nH]c2ccccc12)NC(=O)[C@H](CC(C)C)NC(=O)[C@@H](N)CO)[C@@H](C)CC)C(C)C)C(=O)N[C@@H](CC(C)C)C(=O)N[C@@H](CC(N)=O)C(=O)N1CCC[C@H]1C(N)=O [SLWSSIKDMAAAAGRAALNAVNGILNP]
Klebsiella pneumoniae
  MIC: 189 µM (≈ 512 µg/mL)
[4]
  MIC: 47.2 µM (≈ 128 µg/mL)
Candida albicans
  MIC: > 189 µM
[5]
  MIC: 189 µM (≈ 512 µg/mL)

## CSCC[C@H](NC(=O)[C@@H](N)CO)C(=O)N[C@@H](CC(C)C)C(=O)N[C@@H](CO)C(=O)N[C@H](C(=O)N[C@@H](CC(C)C)C(=O)N[C@@H](CCCCN)C(=O)N[C@@H](CC(N)=O)C(=O)N[C@@H](CC(C)C)C(=O)NCC(=O)N[C@@H](CCCCN)C(=O)N[C@H](C(=O)NCC(=O)N[C@@H](CC(C)C)C(=O)NCC(=O)N[C@@H](Cc1ccccc1)C(=O)N[C@H](C(=O)N[C@@H](C)C(=O)O)C(C)C)C(C)C)C(C)C [SMLSVLKNLGKVGLGFVA]
Escherichia coli
  MIC: > 200 µM
Candida albicans
  MIC: > 200 µM
Staphylococcus aureus
  MIC: > 200 µM

## CC[C@H](C)[C@H](NC(=O)[C@H](CCCN=C(N)N)NC(=O)[C@H](CCCN=C(N)N)NC(=O)[C@@H]1CCCN1C(=O)[C@H](Cc1c[nH]c2ccccc12)NC(=O)[C@H](CCCN=C(N)N)NC(=O)[C@@H]1CCCN1C(=O)[C@H](CCCN=C(N)N)NC(=O)[C@@H]1CCCN1C(=O)[C@H](CC(C)C)NC(=O)[C@H](Cc1ccc(O)cc1)NC(=O)[C@@H]1CCCN1C(=O)[C@@H]1CCCN1C(=O)[C@H](CCCCN)NC(=O)[C@H](CC(=O)O)NC(=O)[C@@H](N)C(C)C)C(=O)N[C@@H](Cc1ccc(O)cc1)C(=O)N[C@@H](CC(N)=O)C(=O)N[C@@H](CCCN=C(N)N)C(N)=O [VDKPPYLPRPRWPRRIYNR]
[10]
  MIC: 12.9 µM (≈ 32 µg/mL)
Escherichia coli UB1005
  MIC: 1.01 µM (≈ 2.5 µg/mL)
[5]
  MIC: 6.45 µM (≈ 16 µg/mL)

## CC(C)C[C@H](NC(=O)[C@H](CCCCN)NC(=O)[C@H](Cc1ccccc1)NC(=O)[C@H](CC(C)C)NC(=O)[C@H](CC(C)C)NC(=O)[C@@H]1CCCN1C(=O)[C@H](CCCCN)NC(=O)[C@H](CC(C)C)NC(=O)[C@H](CCCCN)NC(=O)[C@@H]1CCCN1C(=O)[C@H](CC(C)C)NC(=O)[C@H](CC(C)C)NC(=O)[C@H](CC(C)C)NC(=O)[C@H](CCCCN)NC(=O)[C@H](CC(C)C)NC(=O)[C@H](CC(C)C)NC(=O)[C@H](CCCCN)NC(=O)[C@@H](N)Cc1ccc(O)cc1)C(N)=O [YKLLKLLLPKLKPLLFKL]
[3]
  MIC: 4.54 µM (≈ 9.9 µg/mL)
[11]
  MIC: 69.1 µM (≈ 151 µg/mL)
[12]
  MIC: 1.78 µM (≈ 3.87 µg/mL)
